From patent publication US20170334899A1, “AMINO-SUBSTITUTED ISOTHIAZOLES” (Bayer Pharma Aktiengesellschaft, priority 2014, published 2017) come the findings set out here.

Bounds are passed on as bounds.

The target in this experiment is T1, human kinase Mps-1 (Homo sapiens, UniProt P33981).
T1 construct: N-terminally GST-tagged human full length recombinant Mps-1 kinase; GST (N); purchased Invitrogen, Karslruhe, Germany PV4071
T1 sequence (P33981 1-857): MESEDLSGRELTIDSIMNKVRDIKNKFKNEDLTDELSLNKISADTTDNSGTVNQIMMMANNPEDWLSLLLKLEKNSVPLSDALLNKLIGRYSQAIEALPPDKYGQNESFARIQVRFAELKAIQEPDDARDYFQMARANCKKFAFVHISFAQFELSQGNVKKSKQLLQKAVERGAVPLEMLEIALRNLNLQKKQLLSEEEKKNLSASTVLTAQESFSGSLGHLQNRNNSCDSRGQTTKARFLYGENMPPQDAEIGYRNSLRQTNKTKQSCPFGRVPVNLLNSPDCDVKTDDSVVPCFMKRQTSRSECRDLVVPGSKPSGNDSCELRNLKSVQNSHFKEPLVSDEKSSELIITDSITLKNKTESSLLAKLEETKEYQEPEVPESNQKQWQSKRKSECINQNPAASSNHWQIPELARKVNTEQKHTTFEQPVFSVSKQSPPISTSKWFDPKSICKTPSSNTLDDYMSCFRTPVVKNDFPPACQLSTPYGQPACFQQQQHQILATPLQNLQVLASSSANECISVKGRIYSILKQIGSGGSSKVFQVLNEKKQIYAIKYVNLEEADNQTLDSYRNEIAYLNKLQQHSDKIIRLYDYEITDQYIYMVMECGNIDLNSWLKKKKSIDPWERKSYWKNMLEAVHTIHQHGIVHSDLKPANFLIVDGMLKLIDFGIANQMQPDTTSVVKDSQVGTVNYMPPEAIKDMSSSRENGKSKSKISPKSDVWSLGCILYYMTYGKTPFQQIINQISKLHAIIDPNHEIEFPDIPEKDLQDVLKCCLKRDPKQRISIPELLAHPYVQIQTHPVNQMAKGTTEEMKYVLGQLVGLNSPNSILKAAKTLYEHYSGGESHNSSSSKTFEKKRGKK
Kind of experiment: Mps-1 kinase assay (TR-FRET). Format: biochemical. Conditions: Mps-1 TR-FRET kinase assay; avg; read-out: Mps1 avg (IC50 [mol/l]). Summed up:
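GST-tagged full-length recombinant human Mps-1 (~0.5 nM) pre-incubated 15 min with compound, then reacted 60 min at 22 °C with 10 μM ATP and 1 μM biotinylated peptide in Hepes pH 7.7 buffer. EDTA-stopped; TR-FRET (Eu anti-phospho-Ser/Thr to SA-XLent) 665/620 nm ratio normalised to no-inhibitor and no-enzyme controls.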
Turning to `Cc1nsc(Nc2cnc(C(F)(F)F)cn2)c1C(=O)Nc1ccc(F)c(OCC2CCCN(CCC(F)(F)F)C2)c1` (centres unmarked) [Example 338, N-(4-fluoro-3-{[1-(3,3,3-trifluoropropyl)piperidin-3-yl]methoxy}phenyl)-3-methyl-5-{[5-(trifluoromethyl)pyrazin-2-yl]amino}-1,2-thiazole-4-carboxamide], the IC50 is ≥ 20 µM. Take `Cc1nsc(Nc2cncc(C(F)(F)F)n2)c1C(=O)Nc1ccc(F)c(OC2CCN(CCC(F)(F)F)CC2)c1` [Example 343, N-(4-fluoro-3-{[1-(3,3,3-trifluoropropyl)piperidin-4-yl]oxy}phenyl)-3-methyl-5-{[6-(trifluoromethyl)pyrazin-2-yl]amino}-1,2-thiazole-4-carboxamide]: the IC50 was ≥ 20 µM. For the molecule `Cc1nsc(Nc2cnc(C(F)(F)F)cn2)c1C(=O)Nc1ccc(OCC2CCN(CCF)CC2)nc1` [Example 344, N-(6-{[1-(2-fluoroethyl)piperidin-4-yl]methoxy}pyridin-3-yl)-3-methyl-5-{[5-(trifluoromethyl)pyrazin-2-yl]amino}-1,2-thiazole-4-carboxamide], the IC50 was > 20 µM.

With `Cc1nsc(Nc2cnc(C(F)(F)F)cn2)c1C(=O)Nc1ccc(OCC2CCN(CC(F)F)CC2)nc1` [Example 345, N-(6-{[1-(2,2-difluoroethyl)piperidin-4-yl]methoxy}pyridin-3-yl)-3-methyl-5-{[5-(trifluoromethyl)pyrazin-2-yl]amino}-1,2-thiazole-4-carboxamide], the IC50 was > 20 µM. The same measure for `Cc1nsc(Nc2cnc(C(F)(F)F)cn2)c1C(=O)Nc1ccc(OCC2CCN(CC(F)(F)F)CC2)nc1` [Example 346, 3-methyl-N-(6-{[1-(2,2,2-trifluoroethyl)piperidin-4-yl]methoxy}pyridin-3-yl)-5-{[5-(trifluoromethyl)pyrazin-2-yl]amino}-1,2-thiazole-4-carboxamide]: > 20 µM; for `Cc1nsc(Nc2cnc(C(F)(F)F)cn2)c1C(=O)Nc1ccc(OCC2CCN(CCC(F)(F)F)CC2)nc1` [Example 347, 3-methyl-5-{[5-(trifluoromethyl)pyrazin-2-yl]amino}-N-(6-{[1-(3,3,3-trifluoropropyl)piperidin-4-yl]methoxy}pyridin-3-yl)-1,2-thiazole-4-carboxamide]: > 20 µM. Turning to `Cc1nsc(Nc2cnc(C(F)(F)F)cn2)c1C(=O)Nc1ccc(OCCN(C)CCF)nc1` [Example 348, N-(6-{2-[(2-fluoroethyl)(methyl)amino]ethoxy}pyridin-3-yl)-3-methyl-5-{[5-(trifluoromethyl)pyrazin-2-yl]amino}-1,2-thiazole-4-carboxamide], the IC50 was ≥ 20 µM. In the case of `Cc1nsc(Nc2cnc(C(F)(F)F)cn2)c1C(=O)Nc1ccc(OCCN(C)CC(F)F)nc1` [Example 349, N-(6-{2-[(2,2-difluoroethyl)(methyl)amino]ethoxy}pyridin-3-yl)-3-methyl-5-{[5-(trifluoromethyl)pyrazin-2-yl]amino}-1,2-thiazole-4-carboxamide], the IC50 is ≥ 20 µM. With `Cc1nsc(Nc2cnc(C(F)(F)F)cn2)c1C(=O)Nc1ccc(OCCN(C)CC(F)(F)F)nc1` [Example 350, 3-methyl-N-(6-{2-[methyl(2,2,2-trifluoroethyl)amino]ethoxy}pyridin-3-yl)-5-{[5-(trifluoromethyl)pyrazin-2-yl]amino}-1,2-thiazole-4-carboxamide], the IC50 is ≥ 20 µM.

With `Cc1nsc(Nc2cnc(C(F)(F)F)cn2)c1C(=O)Nc1ccc(OCCN(C)CCC(F)(F)F)nc1` [Example 351, 3-methyl-N-(6-{2-[methyl(3,3,3-trifluoropropyl)amino]ethoxy}pyridin-3-yl)-5-{[5-(trifluoromethyl)pyrazin-2-yl]amino}-1,2-thiazole-4-carboxamide], the IC50 is > 20 µM. Take `Cc1nsc(Nc2cnc(C(F)(F)F)cn2)c1C(=O)Nc1ccc(OCCCN(C)CCF)nc1` [Example 352, N-(6-{3-[(2-fluoroethyl)(methyl)amino]propoxy}pyridin-3-yl)-3-methyl-5-{[5-(trifluoromethyl)pyrazin-2-yl]amino}-1,2-thiazole-4-carboxamide]: the IC50 was > 20 µM.

Take `Cc1nsc(Nc2cnc(C(F)(F)F)cn2)c1C(=O)Nc1ccc(OCCCN(C)CC(F)F)nc1` [Example 353, N-(6-{3-[(2,2-difluoroethyl)(methyl)amino]propoxy}pyridin-3-yl)-3-methyl-5-{[5-(trifluoromethyl)pyrazin-2-yl]amino}-1,2-thiazole-4-carboxamide]: the IC50 is 19 µM. The same measure for `Cc1nsc(Nc2cnc(C(F)(F)F)cn2)c1C(=O)Nc1ccc(OCCCN(C)CC(F)(F)F)nc1` [Example 354, 3-methyl-N-(6-{3-[methyl(2,2,2-trifluoroethyl)amino]propoxy}pyridin-3-yl)-5-{[5-(trifluoromethyl)pyrazin-2-yl]amino}-1,2-thiazole-4-carboxamide]: ≥ 20 µM; for `Cc1nsc(Nc2cnc(C(F)(F)F)cn2)c1C(=O)Nc1ccc(OCCCN(C)CCC(F)(F)F)nc1` [Example 355, 3-methyl-N-(6-{3-[methyl(3,3,3-trifluoropropyl)amino]propoxy}pyridin-3-yl)-5-{[5-(trifluoromethyl)pyrazin-2-yl]amino}-1,2-thiazole-4-carboxamide]: ≥ 20 µM; for `Cc1nsc(Nc2cnc(C(F)(F)F)cn2)c1C(=O)Nc1ccc(CCC2CCN(CC(F)F)CC2)nc1` [Example 356, N-(6-{2-[1-(2,2-difluoroethyl)piperidin-4-yl]ethyl}pyridin-3-yl)-3-methyl-5-{[5-(trifluoromethyl)pyrazin-2-yl]amino}-1,2-thiazole-4-carboxamide]: > 20 µM. To `Cc1nsc(Nc2cnc(C(F)(F)F)cn2)c1C(=O)Nc1ccc(C2CCN(CC(F)F)CC2)nc1` [Example 357, N-{6-[1-(2,2-difluoroethyl)piperidin-4 yl]pyridin-3-yl}-3-methyl-5-{[5-(trifluoromethyl)pyrazin-2-yl]amino}-1,2-thiazole-4-carboxamide] belongs > 20 µM. On to `Cc1nsc(Nc2cnc(C(F)(F)F)cn2)c1C(=O)Nc1ccc(C2CCN(CC(F)(F)F)CC2)nc1` [Example 358, 3-methyl-N-{6-[1-(2,2,2-trifluoroethyl)piperidin-4-yl]pyridin-3-yl}-5-{[5-(trifluoromethyl)pyrazin-2-yl]amino}-1,2-thiazole-4-carboxamide], for which the IC50 is > 20 µM. In the case of `Cc1nsc(Nc2cnc(C(F)(F)F)cn2)c1C(=O)Nc1ccc(N2CCN(CC(F)F)CC2)nc1` [Example 359, N-{6-[4-(2,2-difluoroethyl)piperazin-1-yl]pyridin-3-yl}-3-methyl-5-{[5-(trifluoromethyl)pyrazin-2-yl]amino}-1,2-thiazole-4-carboxamide], the IC50 is > 20 µM.

Regarding `Cc1nsc(Nc2cnc(C(F)(F)F)cn2)c1C(=O)Nc1ccc(N2CCN(CC(F)(F)F)CC2)nc1` [Example 360, 3-methyl-N-{6-[4-(2,2,2-trifluoroethyl)piperazin-1-yl]pyridin-3-yl}-5-{[5-(trifluoromethyl)pyrazin-2-yl]amino}-1,2-thiazole-4-carboxamide], the IC50 was > 20 µM. In the case of `Cc1nsc(Nc2cnc(C(F)(F)F)cn2)c1C(=O)Nc1ccc(N2CCN(CCC(F)(F)F)CC2)nc1` [Example 361, 3-methyl-5-{[5-(trifluoromethyl)pyrazin-2-yl]amino}-N-{6-[4-(3,3,3-trifluoropropyl)piperazin-1-yl]pyridin-3-yl}-1,2-thiazole-4-carboxamide], the IC50 was > 20 µM.

With `Cc1nsc(Nc2cnc(C(F)(F)F)cn2)c1C(=O)Nc1ccc(O[C@H]2CCN(CC(F)F)C[C@@H]2F)nc1` [Example 362], the IC50 was > 20 µM. In the case of `Cc1nsc(Nc2cnc(C(F)(F)F)cn2)c1C(=O)Nc1ccc(O[C@H]2CCN(CC(F)(F)F)C[C@@H]2F)nc1` [Example 363, N-(6-{[(3S,4S)-3-fluoro-1-(2,2,2-trifluoroethyl)piperidin-4-yl]oxy}pyridin-3-yl)-3-methyl-5-{[5-(trifluoromethyl)pyrazin-2-yl]amino}-1,2-thiazole-4-carboxamide], the IC50 is > 20 µM.

Regarding `Cc1nsc(Nc2cnc(C(F)(F)F)cn2)c1C(=O)Nc1ccc(O[C@H]2CCN(CCC(F)(F)F)C[C@@H]2F)nc1` [Example 364, N-(6-{[(3S,4S)-3-fluoro-1-(3,3,3-trifluoropropyl)piperidin-4-yl]oxy}pyridin-3-yl)-3-methyl-5-{[5-(trifluoromethyl)pyrazin-2-yl]amino}-1,2-thiazole-4-carboxamide], the IC50 was > 20 µM.
